Consider one molecule from US20240299380A1, “APPLICATION OF COMPOUND IN PREPARATION OF DRUG FOR TREATING MYELOFIBROSIS AND RELATED SYMPTOMS/SIGNS THEREOF, AND USE OF COMPOUND” (Betta Pharmaceuticals Co., Ltd, priority 2021, published 2024).

Assay [1] relates to IL-6 secretion in THP-1 cells. The assay is described as follows: IL-6 ELISA in THP-1 cell supernatants following LPS stimulation. Format: cell-based, Human. How it is done:
The Human IL-6 Valukine ELISA kit (purchased from R&D) was used to measure the IL-6 content in the cell supernatants by ELISA method in this example. The experimental procedures shown below were conducted to determine the effect of compound 1 on IL-6 secretion in THP-1 cell supernatants following LPS stimulation.
THP-1 cells were cultured in RPMI 1640 medium containing 1% PS and 10% FBS and 2-Mercaptoethanol (IX). The cells were incubated in a humidified incubator with 5% carbon dioxide (CO2) at 37° C. […]
• a) 50 μL medium was added to each well. • b) 100 μL CTG reagent (CelltiterGlo kit) was added to each well, and the plate was placed on a orbital shaker for 2 minutes, then placed at room temperature in dark conditions for 30 minutes, and then transferred to CTG plate. • c) The luminescence values were recorded with Envision.
IC50 (The half maximal inhibitory concentration) was calculated using GraphPad Prism 8 software with the following nonlinear fitting formula: […]
[formula] • b) IL-6 detection: X: Log value of Compound concentration, Y: IL-6 concentration (pg/mL) • IL-6 concentration was calculated based on the linear equation of standard dilution concentration and wavelength detection. […]
Background: In an ELISA, binding on a coated surface is turned into a signal by an enzyme label.

The subject of assay [2] is NF-κB transcriptional activity. The assay can be described thus: NF-κB reporter gene assay in HEK293 cells. Format: cell-based. As to the method:
In present example, reporter gene assay was used to determine the inhibitory effect of compound 1 on NF-κB transcriptional activity in HEK293 cells, to evaluate the effect of the compound on NF-κB transcriptional activity.
• a) All compounds were 3-fold serial diluted from 10 mM for 10 doses in DMSO. • b) The positive compound CDDO-Me was 3-fold serial diluted from 10 mM for 10 doses in DMSO. • c) 1000×positive control ([…]) and 1000×negative control (100% DMSO) were prepared. • d) Compounds plate was sealed and shaked for 5 minutes.
• a) All cells were cultured following ATCC recommendations. […] Digestion was terminated with complete culture medium, and the cells were collected and counted. • d) A total of 6*10^6 HEK293T cells were seeded into a 100 mm cell culture dish. • e) The cells were then incubated overnight in a 5% CO2 incubator. […]
• a) The Britelite plus reagent were allowed to reach room temperature. • b) The 384-well assay plates (prepared at Step 3) were allowed to reach room temperature. • c) 25 μL Britelite plus reagent was added to each well of 384-well assay plate. • d) Luminescence values were recorded with Envision.
[formula] • RLU: relative luminescence units • RLUPositive: The average luminescence value of the blank controls. • RLUvehicle: The average luminescence value of the negative controls. • 5.2 IC50 calculating and compound dose-response curves fitting: […]
In general terms: Reporter assays use an easily measured gene product as a stand-in for the process of interest.

Assay [3] deals with SET-2 cells with JAK2V617F activation mutation. The assay is described as follows: CTG cell proliferation assay, SET-2 cells. The format is cell-based, human. How it is done: (§1) The effects of compound 1 on proliferation of human myeloproliferative tumor cells HEL and SET-2 cells with JAK2V617F activation mutation were tested using CTG assay in this example to evaluate half inhibitory rate (IC50) of compound 1 on HEL and SET-2 cell proliferation.
(§2) • a) HEL cells were cultured in RPMI 1640 medium containing 1% PS and 10% FBS. […] The cells were incubated in a humidified incubator with 5% carbon dioxide (CO2) at 37° C.
(§3) • a) Cells were harvested upon reaching a certain density. • b) Cells were resuspended in corresponding medium with a certain density. • c) 30 μL of cell suspension was added into each well of a 384-well plate. For HEL, the density was 1800 cells/well, and for SET-2, 2000 cells/well. • d) Cells were incubated overnight in a humidified incubator with 5% CO2 at 37° C.
(§4) The compounds were diluted with DMSO 6.67 fold from 20 mM to 3 mM, then 3-fold serial dilutions were conducted to make 10 concentrations for each compound. […]
(§5) • a) 30 μL CTG reagent (CelltiterGlo kit) was added to each well, and the plate was subjected to orbital shaking for 2 minutes, then incubated at room temperature in the dark for 30 minutes. • b) Luminescence values were obtained using Envision.
(§6) IC50 (the half maximal inhibitory concentration) was calculated with GraphPad Prism 8 software and following nonlinear fitting formula: […]

The subject of assay [4] is HEL cells with JAK2V617F activation mutation. The assay is described as follows: CTG cell proliferation assay, HEL cells. The format is cell-based, human. As to the method: as §1, §2, §3, §4, §5, §6
Where [5] appears, read: Homo sapiens, 72 h, CTG, read-out: IC50 for cell proliferation inhibition.

SMILES strings stand for the structures.

Regarding `Cc1nc2ncc(-c3cn(C)c(=O)c4[nH]ccc34)nc2n1Cc1ccc(C(F)(F)F)cc1` [Compound 1, 6-methyl-4-(2-methyl-1-(4-(trifluoromethyl)benzyl)-1H-imidazo[4,5-b]pyrazin-6-yl)-1H-py rrolo[2,3-c]pyridin-7(6H)-one], the IC50 in assay [1] (Homo sapiens, THP-1 cells, LPS 4 μg/mL, read-out: IC50 for inhibition of IL-6 secretion in THP-1 cells) was determined as 22.4 nM; in assay [2] (Homo sapiens, HEK293 cells with NF-κB reporter gene, 8 ng/ml TNFα, 16-20 h, read-out: IC50 for the inhibition of NF-κB transcriptional activity) it was 148 nM; in assay [3] (setting [5]), 104 nM; in assay [4] (setting [5]) it was 154 nM. Further, in assay [1] (THP1 monocytes, LPS), the “inhibition of IL-6 secretion (in words)” value was “significantly inhibited”. The “inhibition of the transcriptional activity of NF-κB (in words)” value in assay [2] (HEK293 cells stably transfected with the NF-κB reporter gene) is recorded as “significantly inhibited”. In addition, the “inhibitory effect on proliferation of SET-2 cells (in words)” value in assay [3] is listed as “good inhibitory effect”. Further, the “inhibitory effect on proliferation of HEL cells (in words)” value in assay [4] was “good inhibitory effect”.
